Several values for one entry are separate records, joined by “and”; a condition that tells them apart may be missing. Equal values may be shown once. Where a name gives a salt, the structure may show the parent alone.
Assays:
human MMP-9 = human MMP-9 (Homo sapiens, UniProt P14780); assay: Inhibition of human MMP-9 (IC50); assay type: biochemical
rat MMP-9 = rat MMP-9 (Rattus norvegicus, UniProt P50282); assay: Inhibition of rat MMP-9; assay type: biochemical
DC injury = assay: Example 2: spinal cord water content as measure of injury-induced oedema; details: in vivo
Procedure: The lesion site+3 mm either side for mice and the lesion site+5 mm either side for the rat DC model were dissected out and the water content of the spinal cord (as a measure of oedema) was determined at 3 days after DC and CC SCI, as described previously (S. Li, C. H. Tator, Effects of MK801 on evoked potentials, spinal cord blood flow and cord edema in acute spinal cord injury in rats. Spinal Cord 37, 820-832 (1999)). Spinal cords containing the lesion site were weighed on aluminium foil, dried at 105° C. for 24 hr, and re-weighed. The percent water content was calculated as: water content (%)=[(wet weight-dry weight)/wet weight]×100%.
Using similar techniques to those described in Example 1, the water content in the spinal cord as a measure of injury-induced oedema was determined for both AZD1236 & AZD3342 (see FIG. 20).

[1] = system: gelatinase enzyme activity; assay: In situ zymography of DC-injured spinal cord sections; assay type: in vivo, mouse; details: oral and intrathecally-administered
Procedure: Animals were killed by CO2 overdose intracardially perfused with warm PBS and unfixed tissues were harvested. […] In situ zymography was performed as described previously (Z. Ahmed, R. G. Dent, W. E. Leadbeater, C. Smith, M. Berry, A. Logan, Matrix metalloproteases: degradation of the inhibitory environment of the transected optic nerve and the scar by regenerating axons. Mol Cell Neurosci 28, 64-78 (2005)).
Briefly, 15 μm-thick unfixed frozen longitudinal sections of the spinal cord were cut on a cryostat and incubated at 25° C., for 24 h in 50 mM Tris, pH 7.4, 150 mM NaCl, 5 mM CaCl2, 0.2 mM sodium azide and 40 ug/ml fluorescein conjugated DQ™ gelatin (Molecular Probes). Upon proteolysis, the highly fluoresceinated gelatin residues became separated and fluorescence resulted. Control sections were incubated either without DQ™ gelatin or incubated with 50 μM 1,10-phenanthroline (Sigma, Poole, UK) to block MMP activation. […] After final washes in PBS, sections were mounted in Vectashield with DAPI (Vector Laboratories, Loughborough, UK) and viewed with a Zeiss Axioplan 2 fluorescence microscope, equipped with an AxioCam HRc and running Axiovision software (Zeiss, Hertfordshire, UK).

[2] = system: J774A.1, RAW 264.7 and primary mouse peritoneal macrophages; assay: Transwell migration assay of macrophages; assay type: cell-based; details: J774A.1 and RAW 264.7, 3 h
Procedure: J774A.1 cells (#TIB-67; ATCC, Middlesex, UK) were cultured in DMEM supplemented with 10% FBS, 100 U/ml penicillin, 100 μg/ml streptomycin, and 0.25 μg amphotericin B. Cells were seeded in T75 tissue-culture flasks and maintained at 37° C. and 5% CO2. RAW 264.7 cells (#TIB-71; ATCC) were maintained in DMEM containing 10% FBS.
Resident peritoneal cells were harvested from adult C57BL/6 mice (6-8 weeks old) by injection of 10 ml of PBS using a 21G needle into the peritoneal cavity and harvesting the cell suspension, as described previously (Rosas M, Davies L C, Giles P J, Liao C T, Kharfan B, Stone T C, et aL. The transcription factor Gata6 links tissue macrophage phenotype and proliferative renewal. Science 2014; 344(6184): 645-8). Peritoneal cells were then centrifuged at 100×g for 10 min and the cell pellet resuspended in DMEM/F12 medium. Cell were incubated at 37° C., for 2 h and non-adherent cells were removed by gentle washing. Cells were expanded in DMEM/F12 medium containing 10% FBS. For migration assays, cells were grown in RPMI containing 0.02% BSA for 24 h to obtain quiescent cells prior to using them in Transwell migration assays as described below.
Migration assays were performed with J774A.1, RAW 264.7 and primary mouse peritoneal macrophages in 6.5 mm Transwell plates (ThermoFisher) with 8 μm pore inserts, as described previously (Green et al., 2012). Briefly, inserts were coated with rat tail type I collagen and 1×10^5 cells (J774A.1, RAW 264.7 or primary mouse macrophages) were resuspended in chemotaxis buffer (RMPI 1640 plus 0.02% BSA, (termed RPMI from herein)) and added to the upper chamber and incubated with migration medium, with or without known chemotactic factors MCP-1 (100 ng/ml) and PMA (100 nM), or AZD1236, GM6001, SD2590 and MMP-9 Inhibitor I (all used at 1, 10, 100, 1000 ng/ml) added to the lower chamber. Cells were allowed to migrate through the insert membrane for 3 h at 37° C., before washing inserts with PBS. Non-migrating cells remaining on the upper surface were removed with a cotton swab whilst the migrated cells on the insert were fixed, stained with Diff-Quick (#26096, Electron Microscopy Science, Hatfield, UK), and mounted on glass slides. Migration was measured visually by counting using a light microscope at 40× magnification. The mean number of cells in 10 random fields were calculated for each treatment by an experimenter masked to the treatment conditions. A migration index was calculated by dividing the number of cells that migrated in response to the chemokine by the number of cells that migrated randomly (RPMI medium) with a reference index>1, indicating chemotaxis.

rat MMP-12 = rat MMP-12 (Rattus norvegicus, UniProt Q63341); assay: Inhibition of rat MMP-12; assay type: biochemical
MMP-2 = target: T1, MMP-2 (Mus musculus, UniProt P33434); assay: MMP-2 activity after DC injury and AZD1236 administration; assay type: in vivo; details: oral and intrathecal, effective dose
T1 construct: from tissue

[3] = system: mice with DC crush injury; assay type: in vivo, mouse; details: for number of CTB+ DC axons regenerating, comparison with other MMP inhibitors (FIG. 11): mouse, in vivo
human MMP-12 = human MMP-12 (Homo sapiens, UniProt P39900); assay: Inhibition of human MMP-12 (IC50); assay type: biochemical
Chain of human MMP-12 (P39900 106-470): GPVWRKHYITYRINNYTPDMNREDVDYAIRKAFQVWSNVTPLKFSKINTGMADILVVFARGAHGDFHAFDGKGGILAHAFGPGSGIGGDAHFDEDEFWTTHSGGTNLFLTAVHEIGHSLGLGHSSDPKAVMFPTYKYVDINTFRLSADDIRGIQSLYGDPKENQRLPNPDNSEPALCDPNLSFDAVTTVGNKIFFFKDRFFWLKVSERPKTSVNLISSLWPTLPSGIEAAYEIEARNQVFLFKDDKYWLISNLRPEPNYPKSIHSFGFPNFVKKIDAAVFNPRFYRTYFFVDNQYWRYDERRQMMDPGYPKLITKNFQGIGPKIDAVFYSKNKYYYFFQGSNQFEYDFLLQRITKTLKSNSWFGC

Chain of rat MMP-12 (Q63341 102-465): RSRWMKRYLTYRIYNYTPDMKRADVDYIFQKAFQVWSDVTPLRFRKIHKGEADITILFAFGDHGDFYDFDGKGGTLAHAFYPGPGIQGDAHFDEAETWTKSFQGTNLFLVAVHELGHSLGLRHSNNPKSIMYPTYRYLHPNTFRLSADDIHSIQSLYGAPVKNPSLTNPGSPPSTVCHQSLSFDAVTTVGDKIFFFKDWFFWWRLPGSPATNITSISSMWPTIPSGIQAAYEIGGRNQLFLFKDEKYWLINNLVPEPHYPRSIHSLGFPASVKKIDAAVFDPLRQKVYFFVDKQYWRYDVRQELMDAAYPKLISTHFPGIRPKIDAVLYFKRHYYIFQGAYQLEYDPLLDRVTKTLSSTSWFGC
Chain of rat MMP-9 (P50282 108-708): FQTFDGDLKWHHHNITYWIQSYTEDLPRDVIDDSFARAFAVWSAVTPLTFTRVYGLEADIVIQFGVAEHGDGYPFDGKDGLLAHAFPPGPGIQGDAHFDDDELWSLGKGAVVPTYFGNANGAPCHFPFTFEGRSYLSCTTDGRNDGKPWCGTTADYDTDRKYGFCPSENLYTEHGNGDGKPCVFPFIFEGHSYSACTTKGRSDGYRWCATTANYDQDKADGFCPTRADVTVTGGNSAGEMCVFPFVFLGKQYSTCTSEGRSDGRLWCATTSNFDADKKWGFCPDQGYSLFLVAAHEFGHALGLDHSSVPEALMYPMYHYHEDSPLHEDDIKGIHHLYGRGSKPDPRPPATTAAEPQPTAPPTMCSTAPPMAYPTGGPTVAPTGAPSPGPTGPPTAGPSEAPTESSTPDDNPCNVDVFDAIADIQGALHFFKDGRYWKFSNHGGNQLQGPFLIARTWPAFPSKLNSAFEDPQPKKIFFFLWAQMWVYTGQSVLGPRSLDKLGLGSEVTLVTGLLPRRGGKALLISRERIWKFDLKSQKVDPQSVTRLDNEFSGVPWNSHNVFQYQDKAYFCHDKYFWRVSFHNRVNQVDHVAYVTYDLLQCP
Chain of human MMP-9 (P14780 94-707): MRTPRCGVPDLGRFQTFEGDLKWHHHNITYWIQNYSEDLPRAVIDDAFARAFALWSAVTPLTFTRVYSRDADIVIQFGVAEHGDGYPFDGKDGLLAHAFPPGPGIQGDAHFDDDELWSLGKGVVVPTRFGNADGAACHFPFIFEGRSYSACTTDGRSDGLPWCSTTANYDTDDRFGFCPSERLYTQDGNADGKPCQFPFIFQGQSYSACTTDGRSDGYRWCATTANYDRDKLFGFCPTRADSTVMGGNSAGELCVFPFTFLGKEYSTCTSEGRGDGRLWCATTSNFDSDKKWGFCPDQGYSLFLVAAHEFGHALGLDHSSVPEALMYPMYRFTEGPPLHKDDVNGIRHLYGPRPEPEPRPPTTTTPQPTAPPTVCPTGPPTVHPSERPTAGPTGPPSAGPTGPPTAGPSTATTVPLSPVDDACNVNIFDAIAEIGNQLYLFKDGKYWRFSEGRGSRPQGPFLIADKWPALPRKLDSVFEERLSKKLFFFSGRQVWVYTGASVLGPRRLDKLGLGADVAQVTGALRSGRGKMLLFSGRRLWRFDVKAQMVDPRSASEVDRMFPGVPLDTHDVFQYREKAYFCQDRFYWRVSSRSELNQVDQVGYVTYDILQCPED
T1 sequence (P33434 110-662): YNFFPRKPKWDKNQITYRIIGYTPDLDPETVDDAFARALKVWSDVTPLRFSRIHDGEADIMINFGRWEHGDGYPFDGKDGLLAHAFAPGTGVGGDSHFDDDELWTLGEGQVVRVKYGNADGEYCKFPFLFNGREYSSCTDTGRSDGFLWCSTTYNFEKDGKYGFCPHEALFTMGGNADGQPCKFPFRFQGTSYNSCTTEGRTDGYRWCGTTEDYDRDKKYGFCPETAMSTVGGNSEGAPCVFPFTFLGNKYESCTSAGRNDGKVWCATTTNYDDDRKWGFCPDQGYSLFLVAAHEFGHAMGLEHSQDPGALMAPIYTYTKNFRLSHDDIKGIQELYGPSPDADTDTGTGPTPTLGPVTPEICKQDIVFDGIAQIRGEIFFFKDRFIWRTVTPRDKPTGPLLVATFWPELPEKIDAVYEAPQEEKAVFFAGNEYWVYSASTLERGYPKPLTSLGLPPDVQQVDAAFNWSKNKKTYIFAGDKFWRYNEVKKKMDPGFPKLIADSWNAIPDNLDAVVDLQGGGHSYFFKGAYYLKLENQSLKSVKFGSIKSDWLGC

C[C@]1(CS(=O)(=O)N2CC=C(C#Cc3cnc(C4CC4)nc3)CC2)NC(=O)NC1=O [AZD1236]
IC50 (human MMP-9): 4.5 nM
activity against rat MMP-9 (rat MMP-9): not active
DC injury-induced increase in water content (FIG. 20) (DC injury): completely suppressed
DC injury-induced gelatinase activity adjacent to the lesion site [1]: completely suppressed
macrophage migration (migration index, chemotaxis) [2]: no effect on chemotaxis
activity against rat MMP-12 (rat MMP-12): not active
DC injury-induced rise in MMP-2 activity (MMP-2): no difference
CTB+ fibres regenerating through the lesion site, 24 h delayed treatment ([3]; 24 h delay vs immediate): promoted the same amount
number of CTB+ DC axons regenerating, comparison with other MMP inhibitors (FIG. 11) [3]: far superior at promoting DC axon regeneration
extension of CTB labelled axons from the lesion centre ([3]; oral): at least 1000 μm
CTB+ labeling intensity (percentage of CTB labelled axons) ([3]; oral, vs DC+Vehicle): significantly enhanced percentage of CTB labelled axons
IC50 (human MMP-12): 6.1 nM

C[C@]1(CS(=O)(=O)N2CCC(Oc3ccc(Cl)cn3)CC2)NC(=O)NC1=O [AZD3342, (5S)-5-[4-(5-chloro-pyridin-2-yloxy)-piperidine-1-sulfonylmethyl]-5-methylimidazolidine-2,4-dione]
IC50 (human MMP-9): 10 nM
IC50 (rat MMP-9; read-out: IC50 against rat MMP-9): 117 nM
DC injury-induced increase in water content (FIG. 20) (DC injury): completely suppressed
IC50 (rat MMP-12; read-out: IC50 against rat MMP-12): 35 nM
IC50 (human MMP-12): 6 nM and 5.9 nM

CNC(=O)[C@H](Cc1c[nH]c2ccccc12)NC(=O)[C@@H](CC(=O)NO)CC(C)C [GM6001, (2R)—N^4-Hydroxy-N^1-[(1S)-1-(1H-indol-3-ylmethyl)-2-(methylamino)-2-oxoethyl]-2-(2-methylpropyl)butanediamide, reference compound]
macrophage migration (migration index, chemotaxis) [2]: not affected
number of CTB+ DC axons regenerating, comparison with other MMP inhibitors (FIG. 11) [3]: only a marginal effect on axon regeneration

CCN(CC)Cc1cc(C)c(N(Cc2ccccc2)S(=O)(=O)c2ccc(OC)cc2)c(C(=O)NO)c1 [MMP-9 Inhibitor I, reference compound]
macrophage migration (migration index, chemotaxis) [2]: not affected
number of CTB+ DC axons regenerating, comparison with other MMP inhibitors (FIG. 11) [3]: only a marginal effect on axon regeneration

COCCN1CCC(C(=O)NO)(S(=O)(=O)c2ccc(Oc3ccc(OC(F)(F)F)cc3)cc2)CC1 [SD2590, N-Hydroxy-1-(2-methoxyethyl)-4-[4-[4-(trifluoromethoxy)phenoxy]phenyl]sulfonyl]-4-piperidinecarboxamide hydrochloride, reference compound]
macrophage migration (migration index, chemotaxis) [2]: not affected
number of CTB+ DC axons regenerating, comparison with other MMP inhibitors (FIG. 11) [3]: only a marginal effect on axon regeneration

Reference: US20230255943A1, “MMP-9 AND MMP-12 INHIBITION FOR TREATING SPINAL CORD INJURY OR RELATED INJURY TO NEUROLOGICAL TISSUE” (The University of Birmingham, priority 2020, published 2023)
